{
  "source": "ChEMBL document CHEMBL5104144",
  "about": "“Exploring the roles of the Cdc2-like kinases in cancers” (Bioorg Med Chem, 2022)",
  "key": {"[1]": {"assay": "Inhibition of GST-tagged recombinant mouse CLK1/STY expressed in Escherichia coli using RSPSYGRSRSRSRSRSRSRSRSNSRSRSY as substrate in presence of [gamma-32P]ATP by a liquid scintillation counter method"}, "[2]": {"assay": "Inhibition of GST-tagged recombinant mouse CLK2 expressed in Escherichia coli using RSPSYGRSRSRSRSRSRSRSRSNSRSRSY as substrate in presence of [gamma-32P]ATP by a liquid scintillation counter method"}, "[3]": {"target": "T1, Dual specificity protein kinase CLK4 (Homo sapiens, UniProt Q9HAZ1)", "T1 sequence (Q9HAZ1 whole entry, the tested form may be a part)": "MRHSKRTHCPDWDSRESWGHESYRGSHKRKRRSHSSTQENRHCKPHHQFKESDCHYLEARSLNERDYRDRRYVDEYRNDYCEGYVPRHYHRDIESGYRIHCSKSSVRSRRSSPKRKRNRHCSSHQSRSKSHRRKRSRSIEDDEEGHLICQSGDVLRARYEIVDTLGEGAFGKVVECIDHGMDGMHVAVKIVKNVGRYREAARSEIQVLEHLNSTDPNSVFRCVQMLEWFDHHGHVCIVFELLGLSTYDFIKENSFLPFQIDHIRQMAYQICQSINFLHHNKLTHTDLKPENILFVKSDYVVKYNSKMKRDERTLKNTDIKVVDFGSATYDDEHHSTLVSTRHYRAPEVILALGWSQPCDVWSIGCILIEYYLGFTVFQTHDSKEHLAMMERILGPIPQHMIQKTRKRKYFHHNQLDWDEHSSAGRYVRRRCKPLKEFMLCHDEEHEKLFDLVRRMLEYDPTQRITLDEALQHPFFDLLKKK", "assay": "Inhibition of human CLK4 (146 to 480 residues) expressed in Escherichia coli BL21 (DE3) Turner using MBP as substrate incubated for 60 mins in presence of [gamma-32P]ATP by radiometric kinase assay"}, "[4]": {"target": "T1, Dual specificity protein kinase CLK4", "assay": "Inhibition of CLK4 (unknown origin)"}, "[5]": {"target": "T2, Dual specificity protein kinase CLK1 (Homo sapiens, UniProt P49759)", "T2 sequence (P49759 whole entry)": "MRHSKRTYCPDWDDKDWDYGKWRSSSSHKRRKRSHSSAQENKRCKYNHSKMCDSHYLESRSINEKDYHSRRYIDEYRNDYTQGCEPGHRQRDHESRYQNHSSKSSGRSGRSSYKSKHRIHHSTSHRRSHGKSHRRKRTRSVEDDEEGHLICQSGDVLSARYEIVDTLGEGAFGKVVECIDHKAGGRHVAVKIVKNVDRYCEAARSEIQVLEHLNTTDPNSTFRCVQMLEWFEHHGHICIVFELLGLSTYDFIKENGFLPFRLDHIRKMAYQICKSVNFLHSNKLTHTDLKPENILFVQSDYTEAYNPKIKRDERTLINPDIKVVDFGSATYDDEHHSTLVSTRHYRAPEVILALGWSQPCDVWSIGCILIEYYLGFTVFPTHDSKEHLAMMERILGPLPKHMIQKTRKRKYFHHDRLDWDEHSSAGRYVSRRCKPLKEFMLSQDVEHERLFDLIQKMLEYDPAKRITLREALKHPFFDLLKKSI", "assay": "Inhibition of CLK1 (unknown origin)"}, "[6]": {"target": "T1, Dual specificity protein kinase CLK4", "assay": "Inhibition of CLK4 (unknown origin) assessed as reduction in SRSF10 phosphorylation"}, "[7]": {"target": "T1, Dual specificity protein kinase CLK4", "assay": "Inhibition of CLK4 (unknown origin) assessed as reduction in SRSF1 phosphorylation"}, "[8]": {"target": "T2, Dual specificity protein kinase CLK1", "assay": "Inhibition of CLK1 (unknown origin) assessed as reduction in SRSF10 phosphorylation"}},
  "data": [
    {"molecule": "CCN1/C(=C/C(C)=O)Sc2ccc(OC)cc21", "values": [
      {"measurement": "IC50", "setting": "[1]", "value": 20, "unit": "nM"},
      {"measurement": "IC50", "setting": "[2]", "value": 200, "unit": "nM"}
    ]},
    {"molecule": "O=C(O)c1ccc2c(c1)nc(Nc1cccc(Cl)c1)c1ccncc12", "note": "[SILMITASERTIB]", "values": [
      {"measurement": "IC50", "setting": "[3]", "value": 11, "unit": "nM"}
    ]},
    {"molecule": "O=C(Nc1ccc2[nH]cnc2c1)c1csc(Nc2ccccc2)n1", "values": [
      {"measurement": "IC50", "setting": "[4]", "value": 14, "unit": "nM"},
      {"measurement": "IC50", "setting": "[5]", "value": 44, "unit": "nM"},
      {"measurement": "IC50", "setting": "[6]", "value": 14, "unit": "nM"},
      {"measurement": "IC50", "setting": "[7]", "value": 24, "unit": "nM"},
      {"measurement": "IC50", "setting": "[8]", "value": 44, "unit": "nM"}
    ]}
  ]
}
